Reference: patent EP1009397B1, “USE OF N,N-BIS (PHENYLCARBAMOYLMETHYL) DIMETHYLAMMONIUM CHLORIDE AND DERIVATIVES IN THE TREATMENT OF CHRONIC PAIN” (UCB Farchim S.A., priority 1997, dated 1999)

How the values were obtained:
mouse tail = assay: Regional analgesic effects in mice (tourniquet at tail base, tail vein injection, tail-flick); format: in vivo; details: injection into the tail vein, tourniquet around the base of the tail
Text: In these experiments a tourniquet is placed around the base of a mouse tail so as to occlude blood flow to and from the tail.

rabbit = details: intravenous administration; cited from earlier work
human forearm = assay: Intradermal injections into the human forearm; format: in vivo; details: intradermal injections of small volumes of solutions
Acute toxicity in rats = details: rat, in vivo, ip; intraperitoneal administration to rats; read-out: survival dose values (LD50)
guinea pig = details: intravenous administration; cited from earlier work
CD-1 mice = assay: Formalin Tail Test; format: in vivo
Protocol: The protocol of this test is similar to that for the Paw Test described above, except that the injection of formalin was in the dorsal mid-tail region of the mouse instead of the hind paw. Behaviors such as licking of the tail (with and without lifting the tail), grooming, exploring and resting were recorded every two minutes for sixty minutes after injection of formalin (30 µl of 2.5% formalin)
Two modes of administration (subcutaneous and oral) of Compound I were studied. […] The ED50 was determined to be 40 mg/kg.
In the oral administration study, CD-1 mice weighing 15-30 grams each (n=8 or 4 for each dose of Compound I) were orally administered with either gum arabic (vehicle), 300 mg/kg or 700 mg/kg Compound I, 60 minutes prior to formalin (2.5%, 30 µ1)_injection. Behaviors such as licking of the tail (with and without lifting the tail), grooming, exploring and resting were recorded every two minutes for sixty minutes after injection of formalin (30 µl of 2.5% formalin). At an oral dose of 700mg/kg, Compound I reduced licking by 62%, while at 300 mg/kg, a reduction of 50% was determined

CD-I mouse = assay: Formalin Paw Test; format: in vivo, mice; details: for ED50: subcutaneous
Protocol: In this test a hind paw (footpad) of conscious mice was injected with a formalin solution, which produced a painful stimulus, to which the mice reacted by licking the foot. Pretreatment of the animal with an effective analgesia reduced the pain and consequently the licking behavior. […] At t=0 minutes, either saline, […], 20, 40, 80 or 160 mg/kg was injected subcutaneously under the dorsal skin of the neck of a CD-I mouse (n=8 for each dose of Compound I) that weighed in the range of 20-45 grams. At t=60 minutes, formalin (2 different amounts were used in separate studies) was injected into the right hind paw (footpad) of each mouse, and the animal was released into the observation chamber (24-26°C). The mice were videotaped in groups of four for 60 minutes. The observations were made from viewing the videotapes activity, and the investigators looked for the following pain behavioral traits: licking of the right hind paw; lifting and licking of the right hind paw; resting/sleeping/being still; exploring or grooming (F.V. Abbott, K.B.J. Franklin and R.F. Wesbrook, Pain, 1995, 60 191-202). The corresponding behavioral traits were checked and recorded for each animal every two minutes for sixty minutes after the formalin injection.

Acute toxicity in mice = details: mouse, in vivo, read-out: survival dose values (LD50)
[1] = Acute toxicity in rabbits; details: rabbit, in vivo; intravenous administration to rabbits; read-out: survival dose values (LD50)
Protocol: The experiments were carried out on animals that were administered intravenously or orally escalating doses of the test compounds.

C[N+](C)(CC(=O)Nc1ccccc1)CC(=O)Nc1ccccc1.[Cl-] [Compound I, N, N-Bis (phenylcarbamoylmethyl) dimethylammonium chloride]
block of tail-flick in response to heat (mouse tail): not to heat
block of tail-flick in response to pin-prick (mouse tail): rapidly produced block of tail-flick in response to pin-prick
Toxicity (LD100) (rabbit): 50 mg/kg
effect on sensation of heat or touch (human forearm): little or no effect on sensation of heat or touch
inhibition of pain induced by pin-prick (human forearm): long-lasting inhibition of pain induced by pin-prick
LD50 (Acute toxicity in rats): 150 mg/kg
Toxicity (LD100) (guinea pig): 36 mg/kg
ED50 (CD-1 mice; Mus musculus, sc, subcutaneous administration, 30 µl of 2.5% formalin): 40 mg/kg
reduction of licking (CD-1 mice; oral 300 mg/kg, 60 minutes prior to formalin (2.5%, 30 µ1)): 50%
reduced licking (CD-1 mice; oral dose of 700mg/kg, 60 minutes prior to formalin (2.5%, 30 µ1)): 62%
inhibition of the delayed phase of licking (CD-1 mice; subcutaneous administration under the dorsal skin of the neck, 30 µl of 2.5% formalin in dorsal mid-tail region): dose related inhibition of the delayed phase of licking
ED50 (CD-I mouse; Mus musculus, sc, 20 µl of 2.0% formalin injected): 50 mg/kg
ED50 (CD-I mouse; Mus musculus, sc, 30 µl of 2.5% formalin injected): 145 mg/kg
inhibition at 160 mg/kg (CD-I mouse; Mus musculus, sc, 20 µl of 2.0% formalin injected, at 160 mg/kg subcutaneous): > 80%
alteration of animal behavior (CD-I mouse; at the doses of the formalin paw test (up to 160 mg/kg subcutaneous)): no evident alteration of animal behavior other than the reduced reaction to the noxious stimulus
inhibition of the delayed phase of licking (CD-I mouse; subcutaneous under the dorsal skin of the neck, 60 minutes before formalin into right hind paw): dose related inhibition of the delayed phase of licking
LD50 (Acute toxicity in mice; ip, intraperitoneal administration to mice): 125 mg/kg
LD50 (Acute toxicity in mice; sc, subcutaneous injection to mice): 264 mg/kg
LD50 (Acute toxicity in mice; oral administration to mice): 117 mg/kg
LD50 [1]: 17 mg/kg

CCCCN1CCCCC1C(=O)Nc1c(C)cccc1C (centres unmarked) [bupivacaine]
effect on sensation of heat or touch (human forearm): inhibited equally sensation of pain, heat and touch
inhibition of pain induced by pin-prick (human forearm): inhibited equally sensation of pain, heat and touch

CCN(CC)CC(=O)Nc1c(C)cccc1C [lidocaine, reference compound]
block of tail-flick in response to heat (mouse tail): inhibits responses both to pin-prick and to heat
block of tail-flick in response to pin-prick (mouse tail): inhibits responses both to pin-prick and to heat
effect on sensation of heat or touch (human forearm): inhibited equally sensation of pain, heat and touch
inhibition of pain induced by pin-prick (human forearm): inhibited equally sensation of pain, heat and touch
